What all share (type): in vivo
For assay [1], the system named is Velvetleaf. Briefly: Pre-emergence herbicide test. To be noted: Abutilon theophrasti, read-out: % plant inhibition (Vele); for inhibition at 1120 g/ha: 1.12 kg/ha. As to the method: (§1) The tests for pre-emergence herbicide activity are conducted as follows:
(§2) Topsoil is placed in an aluminum pan and compacted to a depth of 0.95 to 1.27 cm from the top of the pan. On the top of the soil is placed a predetermined number of seeds of each of several monocotyledonous and dicotyledonous annual plant species and/or vegetative propagules of various perennial plant species. A known amount of the active ingredient dissolved or suspended in an organic solvent, e.g., acetone, or water as carrier is then applied directly to the seed bed, which is then covered with a layer of untreated topsoil to level fill the pan. After treatment, the pans are moved to a greenhouse bench where they are watered from below as needed to give adequate moisture for germination and growth.
(§3) Approximately 10-14 days (usually 11 days) after seeding and treating, the pans are observed and the results (% inhibition) are recorded.
(§4) Tables 7 and 7A below summarize the results of the pre-emergence herbicidal activity tests of compounds of this invention in weeds. The herbicidal rating shown in these tables is the percent inhibition of each plant species. The plant species usually regarded as weeds which are utilized in one set of tests, the data for which are shown in the tables, are identified by letter headings above the columns in accordance with the following legend: […]

Assay [2] has as its system Downy Brome. Briefly: Pre-emergence herbicide test. Particulars: Bromus tectorum, read-out: % plant inhibition (Dobr); for inhibition at 1120 g/ha: 1.12 kg/ha. The protocol: as §1, §2, §3, §4
The subject of assay [3] is Morningglory. In words: Pre-emergence herbicide test. Particulars: Ipomoea, read-out: % plant inhibition (Mogl); for inhibition at 1120 g/ha: 1.12 kg/ha. The protocol:
as §1, §2, §3, §4

Assay [4] concerns Barnyardgrass. Briefly: Pre-emergence herbicide test. To be noted: Echinochloa crus-galli, read-out: % plant inhibition (Bygr); for inhibition at 1120 g/ha: 1.12 kg/ha. As to the method: as §1, §2, §3, §4
The subject of assay [5] is Seedling johnsongrass. Briefly: Pre-emergence herbicide test. To be noted: Sorghum halepense, read-out: % plant inhibition (Sejg); for inhibition at 1120 g/ha: 1.12 kg/ha. As to the method:
as §1, §2, §3, §4

The test system of assay [6] is Annual bluegrass. In words: Pre-emergence herbicide test. To be noted: read-out: % plant inhibition (Anbg); for inhibition at 1120 g/ha: 1.12 kg/ha. As to the method:
as §1, §2, §3, §4

Assay [7] deals with Cocklebur. In words: Pre-emergence herbicide test. To be noted: Xanthium strumarium, read-out: % plant inhibition (Cobu); for inhibition at 1120 g/ha: 1.12 kg/ha. The protocol: as §1, §2, §3, §4
In assay [8] the test system is Yellow nutsedge. Briefly: Pre-emergence herbicide test. To be noted: Cyperus, read-out: % plant inhibition (Yens); for inhibition at 1120 g/ha: 1.12 kg/ha. The protocol:
as §1, §2, §3, §4

The subject of assay [9] is Wild buckwheat. In words: Pre-emergence herbicide test. Particulars: Fallopia convolvulus, read-out: % plant inhibition (Wibw); for inhibition at 1120 g/ha: 1.12 kg/ha. The protocol:
as §1, §2, §3, §4

In assay [10] the test system is Indian Mustard. In words: Pre-emergence herbicide test. Particulars: Brassica juncea, read-out: % plant inhibition (Inmu); for inhibition at 1120 g/ha: 1.12 kg/ha. The protocol:
as §1, §2, §3, §4

Assay [11] relates to Velvetleaf. Briefly: Post-emergence herbicide test. To be noted: Abutilon theophrasti, read-out: % plant inhibition (Vele); for inhibition at 1120 g/ha: 1.12 kg/ha. The source says:
(§5) Topsoil is placed in aluminum pans having holes in the bottom and compacted to a depth of 0.95 to 1.27 cm from the top of the pan. A predetermined number of seeds of each of several dicotyledonous and monocotyledonous annual plant species and/or vegetative propagules for the perennial plant species are placed on the soil and pressed into the soil surface. The seeds and/or vegetative propagules are covered with soil and leveled. The pans are then placed on a bench in the greenhouse and watered from below as needed. After the plants reach the desired age (two to three weeks), each pan, is removed individually to a spraying chamber and sprayed by means of an atomizer, operating at a spray pressure of 170.3 kPa (10 psig) at the application rates noted. In the spray solution is an amount of an emulsifying agent mixture to give a spray solution or suspension which contains about 0.4% by volume of the emulsifier. The spray solution or suspension contains a sufficient amount of the candidate chemical in order to give application rates of the active ingredient corresponding to those shown in Tables 8 and 8A, while applying a total amount of solution or suspension equivalent to 1870 L/Ha (200 gallons/acre). The pans were returned to the greenhouse and watered as before and the injury to the plants as compared to the control is observed at approximately 10-14 days (usually 11 days) and in some instances observed again at 24-28 days (usually 25 days) after spraying. The post-emergent herbicidal activity shown in these tables is the percent inhibition of each plant species.

Assay [12] deals with Downy Brome. In words: Post-emergence herbicide test. Particulars: Bromus tectorum, read-out: % plant inhibition (Dobr); for inhibition at 1120 g/ha: 1.12 kg/ha.
From the text: as §5

In assay [13] the test system is Morningglory. Briefly: Post-emergence herbicide test. To be noted: Ipomoea, read-out: % plant inhibition (Mogl); for inhibition at 1120 g/ha: 1.12 kg/ha.
From the text: as §5

Assay [14] has as its system Barnyardgrass. In words: Post-emergence herbicide test. Particulars: Echinochloa crus-galli, read-out: % plant inhibition (Bygr); for inhibition at 1120 g/ha: 1.12 kg/ha.
From the text: as §5

In assay [15] the test system is Seedling johnsongrass. In words: Post-emergence herbicide test. To be noted: Sorghum halepense, read-out: % plant inhibition (Sejg); for inhibition at 1120 g/ha: 1.12 kg/ha.
From the text: as §5

In assay [16] the test system is Annual bluegrass. Briefly: Post-emergence herbicide test. To be noted: read-out: % plant inhibition (Anbg); for inhibition at 1120 g/ha: 1.12 kg/ha.
From the text: as §5

Assay [17] concerns Cocklebur. In words: Post-emergence herbicide test. Particulars: Xanthium strumarium, read-out: % plant inhibition (Cobu); for inhibition at 1120 g/ha: 1.12 kg/ha.
From the text: as §5

Assay [18] deals with Yellow nutsedge. In words: Post-emergence herbicide test. Particulars: Cyperus, read-out: % plant inhibition (Yens); for inhibition at 1120 g/ha: 1.12 kg/ha.
From the text: as §5

The subject of assay [19] is Wild buckwheat. Briefly: Post-emergence herbicide test. To be noted: Fallopia convolvulus, read-out: % plant inhibition (Wibw); for inhibition at 1120 g/ha: 1.12 kg/ha.
From the text: as §5

The test system of assay [20] is Indian Mustard. In words: Post-emergence herbicide test. Particulars: Brassica juncea, read-out: % plant inhibition (Inmu); for inhibition at 1120 g/ha: 1.12 kg/ha.
From the text: as §5

The term inhibition denotes the share of the control response that was lost under treatment. Take `Cn1nc(-c2cc(C=NOCC(=O)O)c(Cl)cc2F)c(Cl)c1C(F)(F)F` [Compound 130, ((((2-chloro-5-(4-chloro-1-methyl-5-(trifluoromethyl)-1H-pyrazol-3-yl)-4-fluorophenyl)methylene)amino)oxy)acetic acid]: the inhibition at 1120 g/ha came to 100% with Velvetleaf [1]; 30% with Downy Brome [2]; 100% in the assay on Morningglory [3]; 30% in the assay with Barnyardgrass [4]; 70% in the assay with Seedling johnsongrass [5]; 0% in the assay with Annual bluegrass [6]. Besides, the inhibition at 1120 g/ha with Cocklebur [7] is 90%; with Yellow nutsedge [8] it was 20%; with Wild buckwheat [9] it was 90%; in the assay with Indian Mustard [10] it was 100%; in the assay on Velvetleaf [11] it was 100%; in the assay on Downy Brome [12] it was 30%. Further, the inhibition at 1120 g/ha in the assay with Morningglory [13] amounted to 100%; in the assay on Barnyardgrass [14], 40%; with Seedling johnsongrass [15], 70%; with Annual bluegrass [16], 20%; in the assay with Cocklebur [17] it was 100%; with Yellow nutsedge [18], 20%. Also, the figures for the inhibition at 1120 g/ha with Wild buckwheat [19] and in the assay with Indian Mustard [20] were 100% and 40%, respectively.

In the case of `Cn1nc(-c2cc([N+](=O)[O-])c(Cl)cc2Cl)c(Cl)c1C(F)(F)F` [Compound 86], the inhibition at 11210 g/ha was 90% with Velvetleaf [1] (11.21 kg/ha); 0% with Downy Brome [2] (11.21 kg/ha); 20% in the assay with Morningglory [3] (11.21 kg/ha); 0% in the assay with Barnyardgrass [4] (11.21 kg/ha); 0% in the assay with Seedling johnsongrass [5] (11.21 kg/ha); 0% in the assay with Annual bluegrass [6] (11.21 kg/ha). Besides, the inhibition at 11210 g/ha worked out at 10% in the assay with Cocklebur [7] (11.21 kg/ha); 0% in the assay on Yellow nutsedge [8] (11.21 kg/ha); 100% in the assay on Wild buckwheat [9] (11.21 kg/ha); 30% in the assay with Indian Mustard [10] (11.21 kg/ha); 100% in the assay on Velvetleaf [11] (11.21 kg/ha); 0% with Downy Brome [12] (11.21 kg/ha). Further, the inhibition at 11210 g/ha in the assay on Morningglory [13] (11.21 kg/ha) was 100%; in the assay on Barnyardgrass [14] (11.21 kg/ha), 80%; in the assay on Seedling johnsongrass [15] (11.21 kg/ha) it was 80%; in the assay with Annual bluegrass [16] (11.21 kg/ha), 30%; with Cocklebur [17] (11.21 kg/ha), 70%; in the assay with Yellow nutsedge [18] (11.21 kg/ha), 10%. The inhibition at 11210 g/ha in the assay with Wild buckwheat [19] (11.21 kg/ha) turned out to be 100%; in the assay with Indian Mustard [20] (11.21 kg/ha), 60%.

As for `COc1cc(-c2c(Cl)c(C(F)(F)F)nn2C)c(F)cc1Cl` [Compound 74], the inhibition at 1120 g/ha stood at 90% in the assay on Velvetleaf [1]; 20% with Downy Brome [2]; 50% in the assay on Morningglory [3]; 20% with Barnyardgrass [4]; 60% in the assay with Seedling johnsongrass [5]; 10% in the assay on Annual bluegrass [6]. Besides, the inhibition at 1120 g/ha in the assay on Cocklebur [7] stood at 0%; with Yellow nutsedge [8] it was 0%; in the assay on Wild buckwheat [9] it was 100%; with Indian Mustard [10] it was 90%; in the assay with Velvetleaf [11] it was 40%; in the assay on Downy Brome [12], 10%. For the same compound, the inhibition at 1120 g/ha stood at 20% in the assay on Morningglory [13]; 10% in the assay on Barnyardgrass [14]; 10% in the assay on Seedling johnsongrass [15]; 0% with Annual bluegrass [16]; 20% in the assay on Cocklebur [17]; 10% in the assay with Yellow nutsedge [18]. The inhibition at 1120 g/ha with Wild buckwheat [19] came out at 90%; with Indian Mustard [20], 40%.

These data come from US5530126A, “Process for the preparation of substituted 6-(pyrazol-3yl)-1,4-benzoxazin-3-ones” (Monsanto Company, priority 1994, dated 1996).
